Laboratory results: ChEMBL document CHEMBL3792365, “Dioxol and dihydrodioxin analogs of 2- and 3-phenylacetonitriles as potent anti-cancer agents with nanomolar activity against a variety of human cancer cells” (2016)

Columns and labels:
Assay type in all cases: functional
[1] = test system: NCI-H322M; experiment: Growth inhibition of human NCI-H322M cells at 10 uM after 48 hrs by sulforhodamine B assay; details: values are per cent of control
[2] = Growth inhibition of human SF295 cells at 10 uM after 48 hrs by sulforhodamine B assay; details: SF-295, 48 h, values are per cent of control
[3] = Growth inhibition of human SF539 cells at 10 uM after 48 hrs by sulforhodamine B assay; details: SF-539, 48 h, values are per cent of control
[4] = test system: NCI-H226; experiment: Growth inhibition of human NCI-H226 cells at 10 uM after 48 hrs by sulforhodamine B assay; details: NCI-H226, 48 h, values are per cent of control
[5] = Growth inhibition of human NCI-ADR-RES cells at 10 uM after 48 hrs by sulforhodamine B assay; details: values are per cent of control
[6] = Growth inhibition of human COLO205 cells at 10 uM after 48 hrs by sulforhodamine B assay; details: COLO 205, 48 h, values are per cent of control
[7] = Growth inhibition of human RXF393 cells at 10 uM after 48 hrs by sulforhodamine B assay; details: RXF 393, 48 h, values are per cent of control
[8] = test system: SK-MEL-28; experiment: Growth inhibition of human SK-MEL-28 cells at 10 uM after 48 hrs by sulforhodamine B assay; details: SK-MEL-28, 48 h, values are per cent of control
[9] = Growth inhibition of human Caki1 cells at 10 uM after 48 hrs by sulforhodamine B assay; details: CAKI-1, 48 h, values are per cent of control
[10] = Growth inhibition of human HCT116 cells at 10 uM after 48 hrs by sulforhodamine B assay; details: HCT-116, 48 h, values are per cent of control
[11] = Growth inhibition of human SNB19 cells at 10 uM after 48 hrs by sulforhodamine B assay; details: SNB-19, 48 h, values are per cent of control
[12] = test system: SK-MEL-2; experiment: Growth inhibition of human SK-MEL-2 cells at 10 uM after 48 hrs by sulforhodamine B assay; details: SK-MEL-2, 48 h, values are per cent of control
[13] = test system: M14; experiment: Growth inhibition of human M14 cells at 10 uM after 48 hrs by sulforhodamine B assay; details: M14, 48 h, values are per cent of control
[14] = Growth inhibition of human LOXIMVI cells at 10 uM after 48 hrs by sulforhodamine B assay; details: LOX IMVI, values are per cent of control
[15] = test system: A549; experiment: Growth inhibition of human A549/ATCC cells at 10 uM after 48 hrs by sulforhodamine B assay; details: A549, 48 h, values are per cent of control
[16] = Growth inhibition of human HCT15 cells at 10 uM after 48 hrs by sulforhodamine B assay; details: HCT-15, 48 h, values are per cent of control
[17] = Growth inhibition of human Hs 578T cells at 10 uM after 48 hrs by sulforhodamine B assay; details: values are per cent of control
[18] = Growth inhibition of human HOP62 cells at 10 uM after 48 hrs by sulforhodamine B assay; details: HOP-62, 48 h, values are per cent of control
[19] = Growth inhibition of human HCC2998 cells at 10 uM after 48 hrs by sulforhodamine B assay; details: HCC 2998, 48 h, values are per cent of control
[20] = test system: U-251; experiment: Growth inhibition of human U251 cells at 10 uM after 48 hrs by sulforhodamine B assay; details: U-251, 48 h, values are per cent of control
[21] = Growth inhibition of human IGROV1 cells at 10 uM after 48 hrs by sulforhodamine B assay; details: IGROV-1, 48 h, values are per cent of control
[22] = Growth inhibition of human SF268 cells at 10 uM after 48 hrs by sulforhodamine B assay; details: SF-268, 48 h, values are per cent of control
[23] = test system: NCI-H460; experiment: Growth inhibition of human NCI-H460 cells at 10 uM after 48 hrs by sulforhodamine B assay; details: NCI-H460, 48 h, values are per cent of control
[24] = test system: ACHN; experiment: Growth inhibition of human ACHN cells at 10 uM after 48 hrs by sulforhodamine B assay; details: values are per cent of control
[25] = Growth inhibition of human OVCAR8 cells at 10 uM after 48 hrs by sulforhodamine B assay; details: OVCAR-8, 48 h, values are per cent of control
[26] = Growth inhibition of human UACC62 cells at 10 uM after 48 hrs by sulforhodamine B assay; details: UACC-62, 48 h, values are per cent of control
[27] = Growth inhibition of human DU145 cells at 10 uM after 48 hrs by sulforhodamine B assay; details: DU-145, 48 h, values are per cent of control
[28] = Growth inhibition of human OVCAR4 cells at 10 uM after 48 hrs by sulforhodamine B assay; details: OVCAR-4, 48 h, values are per cent of control
[29] = test system: SN12C; experiment: Growth inhibition of human SN12C cells at 10 uM after 48 hrs by sulforhodamine B assay; details: values are per cent of control
[30] = test system: SR; experiment: Growth inhibition of human SR cells at 10 uM after 48 hrs by sulforhodamine B assay; details: values are per cent of control
[31] = test system: NCI-H23; experiment: Growth inhibition of human NCI-H23 cells at 10 uM after 48 hrs by sulforhodamine B assay; details: NCI-H23, 48 h, values are per cent of control
[32] = test system: MDA-MB-435; experiment: Growth inhibition of human MDA-MB-435 cells at 10 uM after 48 hrs by sulforhodamine B assay; details: MDA-MB-435, 48 h, values are per cent of control
[33] = test system: NCI-H522; experiment: Growth inhibition of human NCI-H522 cells at 10 uM after 48 hrs by sulforhodamine B assay; details: NCI-H522, 48 h, values are per cent of control
[34] = test system: T47D; experiment: Growth inhibition of human T47D cells at 10 uM after 48 hrs by sulforhodamine B assay; details: values are per cent of control
[35] = test system: 786-0; experiment: Growth inhibition of human 786-0 cells at 10 uM after 48 hrs by sulforhodamine B assay; details: 786-0, 48 h, values are per cent of control
[36] = Growth inhibition of human SW620 cells at 10 uM after 48 hrs by sulforhodamine B assay; details: SW-620, 48 h, values are per cent of control
[37] = test system: SK-MEL-5; experiment: Growth inhibition of human SK-MEL-5 cells at 10 uM after 48 hrs by sulforhodamine B assay; details: SK-MEL-5, 48 h, values are per cent of control
[38] = Growth inhibition of human TK10 cells at 10 uM after 48 hrs by sulforhodamine B assay; details: TK-10, 48 h, values are per cent of control
[39] = test system: MDA-MB-468; experiment: Growth inhibition of human MDA-MB-468 cells at 10 uM after 48 hrs by sulforhodamine B assay; details: MDA-MB-468, 48 h, values are per cent of control
[40] = Growth inhibition of human BT549 cells at 10 uM after 48 hrs by sulforhodamine B assay; details: BT-549, 48 h, values are per cent of control

SMILES	growth, % of control at 10 µM [1]	growth, % of control at 10 µM [2]	growth, % of control at 10 µM [3]	growth, % of control at 10 µM [4]	growth, % of control at 10 µM [5]	growth, % of control at 10 µM [6]	growth, % of control at 10 µM [7]	growth, % of control at 10 µM [8]	growth, % of control at 10 µM [9]	growth, % of control at 10 µM [10]	growth, % of control at 10 µM [11]	growth, % of control at 10 µM [12]	growth, % of control at 10 µM [13]	growth, % of control at 10 µM [14]	growth, % of control at 10 µM [15]	growth, % of control at 10 µM [16]	growth, % of control at 10 µM [17]	growth, % of control at 10 µM [18]	growth, % of control at 10 µM [19]	growth, % of control at 10 µM [20]	other results
COc1ccc(/C=C(\C#N)c2ccc3c(c2)OCO3)cn1	98.3%	89.3%	83.1%	93.3%	86%	97.6%	86.5%	95.1%	75.3%	82.6%	96.4%	93.2%	91.1%	95.6%	77.4%	78%	101%	88.1%	93.2%	84.5%	growth, % of control at 10 µM [21]: 90.6%; growth, % of control at 10 µM [22]: 91%; growth, % of control at 10 µM [23]: 95.2%; growth, % of control at 10 µM [24]: 93.4%; growth, % of control at 10 µM [25]: 90.1%; growth, % of control at 10 µM [26]: 79.9%; growth, % of control at 10 µM [27]: 97.4%; growth, % of control at 10 µM [28]: 81.6%; growth, % of control at 10 µM [29]: 92.6%; growth, % of control at 10 µM [30]: 50.1%; growth, % of control at 10 µM [31]: 93.7%; growth, % of control at 10 µM [32]: 37.2%; growth, % of control at 10 µM [33]: 79.8%; growth, % of control at 10 µM [34]: 81%; growth, % of control at 10 µM [35]: 107%; growth, % of control at 10 µM [36]: 86.1%; growth, % of control at 10 µM [37]: 84.1%; growth, % of control at 10 µM [38]: 80.4%; growth, % of control at 10 µM [39]: 60.8%; growth, % of control at 10 µM [40]: 81%
N#C/C(=C\c1ccc(Cl)cc1Cl)c1ccc2c(c1)OCO2	86.4%	97.5%	93.8%	113%	100%	99%	101%	98.3%	86.9%	99.5%	99.8%	98.9%	88.7%	103%	92.3%	82.9%	135%	88%	94.8%	91.1%	growth, % of control at 10 µM [21]: 97.9%; growth, % of control at 10 µM [22]: 94.4%; growth, % of control at 10 µM [23]: 103%; growth, % of control at 10 µM [24]: 102%; growth, % of control at 10 µM [25]: 104%; growth, % of control at 10 µM [26]: 81.9%; growth, % of control at 10 µM [27]: 99.3%; growth, % of control at 10 µM [28]: 88.7%; growth, % of control at 10 µM [29]: 102%; growth, % of control at 10 µM [30]: 68.7%; growth, % of control at 10 µM [31]: 96.3%; growth, % of control at 10 µM [32]: 50.7%; growth, % of control at 10 µM [33]: 75.8%; growth, % of control at 10 µM [34]: 76.3%; growth, % of control at 10 µM [35]: 91.4%; growth, % of control at 10 µM [36]: 106%; growth, % of control at 10 µM [37]: 98.9%; growth, % of control at 10 µM [38]: 90.7%; growth, % of control at 10 µM [39]: 82.1%; growth, % of control at 10 µM [40]: 86.4%
